Measured values as given in PMC12102759 (Protein Science : A Publication of the Protein Society, 2025).
Read-outs that look alike come from different tables or passages of the source.

Test system: PABPC1 PABC
Format: binding, human
Conditions: DMS-BM library, bait PABPC1 PABC, row aa = residue at this position; for DMS-derived PSSM value, position R12 / DMS-derived PSSM value (averaged), position R12: R = wild type; for DMS-derived PSSM value, position A8 / DMS-derived PSSM value, position A6 / DMS-derived PSSM value (averaged), position A6: A = wild type; for DMS-derived PSSM value, position L4 / DMS-derived PSSM value, position L2: L = wild type; for DMS-derived PSSM value (averaged), position E8 / DMS-derived PSSM value, position E8 / DMS-derived PSSM value, position E10: E = wild type; for DMS-derived PSSM value, position T3 / DMS-derived PSSM value, position T1: T = wild type
[1] = prey ATXN2, peptide KSTLNPNAKEFNPRSF, P = wild type
[2] = prey ATXN2, TLNPNAKEFNPRSF(averaged) over the two overlapping peptides, F = wild type
[3] = prey ATXN2, peptide KSTLNPNAKEFNPRSF, F = wild type
[4] = prey ATXN2, peptide KSTLNPNAKEFNPRSF, N = wild type
[5] = prey ATXN2, peptide TLNPNAKEFNPRSFSQ
[6] = prey ATXN2, peptide KSTLNPNAKEFNPRSF
[7] = prey ATXN2, TLNPNAKEFNPRSF(averaged) over the two overlapping peptides, N = wild type
[8] = prey ATXN2, peptide TLNPNAKEFNPRSFSQ, P = wild type
[9] = prey ATXN2, TLNPNAKEFNPRSF(averaged) over the two overlapping peptides, P = wild type
[10] = prey ATXN2, TLNPNAKEFNPRSF(averaged) over the two overlapping peptides
[11] = prey ATXN2, peptide TLNPNAKEFNPRSFSQ, N = wild type
[12] = prey ATXN2, peptide TLNPNAKEFNPRSFSQ, F = wild type
[13] = prey ATXN2, peptide KSTLNPNAKEFNPRSF, S = wild type
[14] = prey ATXN2, peptide TLNPNAKEFNPRSFSQ, K = wild type
[15] = prey ATXN2, peptide TLNPNAKEFNPRSFSQ, S = wild type

With “KSTLNPNAKEFNPRSF P13S (KSTLNPNAKEFNSRSF)” the “DMS-derived PSSM value, position P13” value [1] was 0.02375.

“TLNPNAKEFNPRSF(averaged) F14W (TLNPNAKEFNPRSW)” was tested, and the “DMS-derived PSSM value (averaged), position F14” value [2] was 0.01444.

In the case of “KSTLNPNAKEFNPRSF F16N (KSTLNPNAKEFNPRSN)”, the “DMS-derived PSSM value, position F16” value [3] is reported as 0.04727.

For KSTLNPNAKEFNPRSF N5F (KSTLFPNAKEFNPRSF), the “DMS-derived PSSM value, position N5” value [4] was 0.

For “TLNPNAKEFNPRSFSQ R12H (TLNPNAKEFNPHSFSQ)”, the “DMS-derived PSSM value, position R12” value [5] was 0.186.

In the case of KSTLNPNAKEFNPRSF A8T (KSTLNPNTKEFNPRSF), the “DMS-derived PSSM value, position A8” value [6] is reported as 0.

“TLNPNAKEFNPRSF(averaged) S13H (TLNPNAKEFNPRHF)” was tested, and the “DMS-derived PSSM value (averaged), position S13” value (prey ATXN2, TLNPNAKEFNPRSF(averaged) over the two overlapping peptides, S = wild type) was 0.06517.

For “TLNPNAKEFNPRSF(averaged) N3V (TLVPNAKEFNPRSF)”, the “DMS-derived PSSM value (averaged), position N3” value [7] was 0.

“TLNPNAKEFNPRSFSQ P11F (TLNPNAKEFNFRSFSQ)” was tested, and the “DMS-derived PSSM value, position P11” value [8] was 0.1255.

For TLNPNAKEFNPRSFSQ A6T (TLNPNTKEFNPRSFSQ), the “DMS-derived PSSM value, position A6” value [5] was 0.2659.

In the case of “TLNPNAKEFNPRSF(averaged) P4D (TLNDNAKEFNPRSF)”, the “DMS-derived PSSM value (averaged), position P4” value [9] is reported as 0.

In the case of KSTLNPNAKEFNPRSF L4E (KSTENPNAKEFNPRSF), the “DMS-derived PSSM value, position L4” value [6] is reported as 0.

In the case of TLNPNAKEFNPRSFSQ L2S (TSNPNAKEFNPRSFSQ), the “DMS-derived PSSM value, position L2” value [5] is reported as 0.

For “TLNPNAKEFNPRSF(averaged) E8Y (TLNPNAKYFNPRSF)”, the “DMS-derived PSSM value (averaged), position E8” value [10] was 0.02496.

For KSTLNPNAKEFNPRSF T3S (KSSLNPNAKEFNPRSF), the “DMS-derived PSSM value, position T3” value [6] was 0.

In the case of “KSTLNPNAKEFNPRSF N12F (KSTLNPNAKEFFPRSF)”, the “DMS-derived PSSM value, position N12” value [4] is reported as 0.05323.

With TLNPNAKEFNPRSFSQ E8S (TLNPNAKSFNPRSFSQ) the “DMS-derived PSSM value, position E8” value [5] was 0.09805.

“KSTLNPNAKEFNPRSF N12W (KSTLNPNAKEFWPRSF)” was tested, and the “DMS-derived PSSM value, position N12” value [4] was 0.1585.

TLNPNAKEFNPRSFSQ E8N (TLNPNAKNFNPRSFSQ) was tested, and the “DMS-derived PSSM value, position E8” value [5] was 0.1259.

With KSTLNPNAKEFNPRSF T3R (KSRLNPNAKEFNPRSF) the “DMS-derived PSSM value, position T3” value [6] was 0.

KSTLNPNAKEFNPRSF A8P (KSTLNPNPKEFNPRSF) was tested, and the “DMS-derived PSSM value, position A8” value [6] was 0.

For “TLNPNAKEFNPRSFSQ N10R (TLNPNAKEFRPRSFSQ)”, the “DMS-derived PSSM value, position N10” value [11] was 0.03785.

In the case of “TLNPNAKEFNPRSFSQ F14I (TLNPNAKEFNPRSISQ)”, the “DMS-derived PSSM value, position F14” value [12] is reported as 0.0189.

“KSTLNPNAKEFNPRSF F11A (KSTLNPNAKEANPRSF)” was tested, and the “DMS-derived PSSM value, position F11” value [3] was 0.

In the case of “TLNPNAKEFNPRSF(averaged) R12T (TLNPNAKEFNPTSF)”, the “DMS-derived PSSM value (averaged), position R12” value [10] is reported as 0.1269.

“TLNPNAKEFNPRSF(averaged) A6P (TLNPNPKEFNPRSF)” was tested, and the “DMS-derived PSSM value (averaged), position A6” value [10] was 0.

For “TLNPNAKEFNPRSF(averaged) N10I (TLNPNAKEFIPRSF)”, the “DMS-derived PSSM value (averaged), position N10” value [7] was 0.01803.

For “TLNPNAKEFNPRSF(averaged) P11L (TLNPNAKEFNLRSF)”, the “DMS-derived PSSM value (averaged), position P11” value [9] was 0.01529.

With “KSTLNPNAKEFNPRSF E10R (KSTLNPNAKRFNPRSF)” the “DMS-derived PSSM value, position E10” value [6] was 0.

TLNPNAKEFNPRSFSQ N3E (TLEPNAKEFNPRSFSQ) was tested, and the “DMS-derived PSSM value, position N3” value [11] was 0.

“TLNPNAKEFNPRSF(averaged) A6W (TLNPNWKEFNPRSF)” was tested, and the “DMS-derived PSSM value (averaged), position A6” value [10] was 0.

With “TLNPNAKEFNPRSFSQ R12V (TLNPNAKEFNPVSFSQ)” the “DMS-derived PSSM value, position R12” value [5] was 0.1384.

With “TLNPNAKEFNPRSFSQ R12S (TLNPNAKEFNPSSFSQ)” the “DMS-derived PSSM value, position R12” value [5] was 0.1947.

In the case of TLNPNAKEFNPRSFSQ P4I (TLNINAKEFNPRSFSQ), the “DMS-derived PSSM value, position P4” value [8] is reported as 0.2422.

For “KSTLNPNAKEFNPRSF S15M (KSTLNPNAKEFNPRMF)”, the “DMS-derived PSSM value, position S15” value [13] was 0.01897.

In the case of TLNPNAKEFNPRSFSQ A6D (TLNPNDKEFNPRSFSQ), the “DMS-derived PSSM value, position A6” value [5] is reported as 0.

“KSTLNPNAKEFNPRSF E10K (KSTLNPNAKKFNPRSF)” was tested, and the “DMS-derived PSSM value, position E10” value [6] was 0.06317.

For TLNPNAKEFNPRSFSQ K7H (TLNPNAHEFNPRSFSQ), the “DMS-derived PSSM value, position K7” value [14] was 0.02911.

“TLNPNAKEFNPRSF(averaged) R12L (TLNPNAKEFNPLSF)” was tested, and the “DMS-derived PSSM value (averaged), position R12” value [10] was 0.02116.

In the case of “TLNPNAKEFNPRSF(averaged) F14Q (TLNPNAKEFNPRSQ)”, the “DMS-derived PSSM value (averaged), position F14” value [2] is reported as 0.06013.

With TLNPNAKEFNPRSFSQ the “DMS-derived PSSM value, position A6” value [5] was 0.3958, the “DMS-derived PSSM value, position E8” value [5] was 0.1068 and the “DMS-derived PSSM value, position F9” value [12] was 0.2105. The “DMS-derived PSSM value, position F14” value [12] was 0.06109, the “DMS-derived PSSM value, position K7” value [14] was 0.0126 and the “DMS-derived PSSM value, position L2” value [5] was 0.3849. For the same substance, the “DMS-derived PSSM value, position N3” value [11] was 0.2805, the “DMS-derived PSSM value, position N5” value [11] was 0.009358 and the “DMS-derived PSSM value, position N10” value [11] was 0.0868. The “DMS-derived PSSM value, position P4” value [8] was 0.1257, the “DMS-derived PSSM value, position P11” value [8] was 0.07425 and the “DMS-derived PSSM value, position R12” value [5] was 0.03868. The “DMS-derived PSSM value, position S13” value [15] was 0.06246, the “DMS-derived PSSM value, position S15” value [15] was 0.03177 and the “DMS-derived PSSM value, position T1” value [5] was 0.03795.

In the case of “TLNPNAKEFNPRSF(averaged) P4A (TLNANAKEFNPRSF)”, the “DMS-derived PSSM value (averaged), position P4” value [9] is reported as 0.01026.

In the case of “TLNPNAKEFNPRSFSQ P11L (TLNPNAKEFNLRSFSQ)”, the “DMS-derived PSSM value, position P11” value [8] is reported as 0.02416.

With TLNPNAKEFNPRSFSQ N3Q (TLQPNAKEFNPRSFSQ) the “DMS-derived PSSM value, position N3” value [11] was 0.055.

In the case of “TLNPNAKEFNPRSF(averaged) N3M (TLMPNAKEFNPRSF)”, the “DMS-derived PSSM value (averaged), position N3” value [7] is reported as 0.

TLNPNAKEFNPRSFSQ N5T (TLNPTAKEFNPRSFSQ) was tested, and the “DMS-derived PSSM value, position N5” value [11] was 0.0193.

For “TLNPNAKEFNPRSF(averaged) F9T (TLNPNAKETNPRSF)”, the “DMS-derived PSSM value (averaged), position F9” value [2] was 0.02947.

For TLNPNAKEFNPRSFSQ L2V (TVNPNAKEFNPRSFSQ), the “DMS-derived PSSM value, position L2” value [5] was 0.

In the case of TLNPNAKEFNPRSFSQ K7Q (TLNPNAQEFNPRSFSQ), the “DMS-derived PSSM value, position K7” value [14] is reported as 0.008943.

With TLNPNAKEFNPRSFSQ T1L (LLNPNAKEFNPRSFSQ) the “DMS-derived PSSM value, position T1” value [5] was 0.1166.

KSTLNPNAKEFNPRSF P6A (KSTLNANAKEFNPRSF) was tested, and the “DMS-derived PSSM value, position P6” value [1] was 0.

For KSTLNPNAKEFNPRSF P6T (KSTLNTNAKEFNPRSF), the “DMS-derived PSSM value, position P6” value [1] was 0.001755.

With TLNPNAKEFNPRSFSQ K7F (TLNPNAFEFNPRSFSQ) the “DMS-derived PSSM value, position K7” value [14] was 0.058.

With “TLNPNAKEFNPRSF(averaged) N10L (TLNPNAKEFLPRSF)” the “DMS-derived PSSM value (averaged), position N10” value [7] was 0.09868.

In the case of KSTLNPNAKEFNPRSF T3F (KSFLNPNAKEFNPRSF), the “DMS-derived PSSM value, position T3” value [6] is reported as 0.07157.

For “TLNPNAKEFNPRSF(averaged) P4F (TLNFNAKEFNPRSF)”, the “DMS-derived PSSM value (averaged), position P4” value [9] was 0.005863.

In the case of “TLNPNAKEFNPRSF(averaged) E8K (TLNPNAKKFNPRSF)”, the “DMS-derived PSSM value (averaged), position E8” value [10] is reported as 0.03159.

In the case of “TLNPNAKEFNPRSF(averaged) F14L (TLNPNAKEFNPRSL)”, the “DMS-derived PSSM value (averaged), position F14” value [2] is reported as 0.193.

KSTLNPNAKEFNPRSF K9Q (KSTLNPNAQEFNPRSF) was tested, and the “DMS-derived PSSM value, position K9” value (prey ATXN2, peptide KSTLNPNAKEFNPRSF, K = wild type) was 0.02634.

In the case of “TLNPNAKEFNPRSF(averaged) N5T (TLNPTAKEFNPRSF)”, the “DMS-derived PSSM value (averaged), position N5” value [7] is reported as 0.01041.

With KSTLNPNAKEFNPRSF L4D (KSTDNPNAKEFNPRSF) the “DMS-derived PSSM value, position L4” value [6] was 0.

In the case of KSTLNPNAKEFNPRSF A8E (KSTLNPNEKEFNPRSF), the “DMS-derived PSSM value, position A8” value [6] is reported as 0.

“KSTLNPNAKEFNPRSF F16R (KSTLNPNAKEFNPRSR)” was tested, and the “DMS-derived PSSM value, position F16” value [3] was 0.

For KSTLNPNAKEFNPRSF S2T (KTTLNPNAKEFNPRSF), the “DMS-derived PSSM value, position S2” value [13] was 0.02133.
